# Entries after “also recorded” stand apart in the source; their conditions may differ.
# Legend:
# [1] = tested on: SARS PLpro; format: biochemical
# [2] = tested on: SARS-1; details: cited from earlier work
# [3] = tested on: endogenous enzymes present in crude tongue scrape lysate; format: biochemical, human
# [4] = tested on: SARS-2; details: cited from earlier work
# [5] = tested on: MERS; details: cited from earlier work
# [6] = target: SARS-2 papain-like protease (recombinant) (Severe acute respiratory syndrome coronavirus 2, UniProt P0DTD1)
# [7] = target: PLpro from SARS-CoV-2 (Severe acute respiratory syndrome coronavirus 2, UniProt P0DTD1)
# [8] = target: MERS PLpro (Middle East respiratory syndrome-related coronavirus, UniProt K9N7C7)
# [9] = target: PLpro from SARS-CoV-1 (Severe acute respiratory syndrome coronavirus, UniProt P0C6X7)
# [10] = target: SARS-1 papain-like protease (recombinant) (Severe acute respiratory syndrome coronavirus, UniProt P0C6X7)
# [11] = target: MERS papain-like protease (recombinant) (Middle East respiratory syndrome-related coronavirus, UniProt K9N7C7)
# [12] = tested on: human cells infected with OC43 coronavirus; format: cell-based
# [13] = target: NL63 PLP2 (recombinant) (Human coronavirus NL63, UniProt P0C6X5); format: biochemical; parameters: cleavage of papain-like protease substrate: key to the marks not given beside the values
# [14] = tested on: human cells infected with NL63 coronavirus; format: cell-based; details: NL63, viral enzyme, in vivo (infected human cell lysate), after 15 minutes of incubation
# [15] = target: human UCH-L3 (Homo sapiens, UniProt P15374); format: biochemical
# human UCH-L3, sequence (P15374 whole entry, looked up): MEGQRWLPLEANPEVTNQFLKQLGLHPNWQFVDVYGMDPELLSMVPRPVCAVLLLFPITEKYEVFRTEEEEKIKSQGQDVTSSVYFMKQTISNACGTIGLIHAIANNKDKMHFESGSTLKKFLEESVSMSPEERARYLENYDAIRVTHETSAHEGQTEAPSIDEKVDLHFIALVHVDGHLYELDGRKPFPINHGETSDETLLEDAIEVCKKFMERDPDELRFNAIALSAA
# NL63 PLP2 (recombinant), sequence (P0C6X5 1640-1886 limits assumed): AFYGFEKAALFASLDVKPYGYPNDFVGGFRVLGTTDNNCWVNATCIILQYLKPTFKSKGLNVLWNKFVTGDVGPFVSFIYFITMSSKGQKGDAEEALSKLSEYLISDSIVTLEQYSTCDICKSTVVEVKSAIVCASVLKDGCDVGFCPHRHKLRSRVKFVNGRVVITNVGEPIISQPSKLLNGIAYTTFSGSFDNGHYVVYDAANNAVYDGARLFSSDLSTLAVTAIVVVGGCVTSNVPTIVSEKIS
# MERS PLpro, sequence (K9N7C7 1552-1823 limits assumed): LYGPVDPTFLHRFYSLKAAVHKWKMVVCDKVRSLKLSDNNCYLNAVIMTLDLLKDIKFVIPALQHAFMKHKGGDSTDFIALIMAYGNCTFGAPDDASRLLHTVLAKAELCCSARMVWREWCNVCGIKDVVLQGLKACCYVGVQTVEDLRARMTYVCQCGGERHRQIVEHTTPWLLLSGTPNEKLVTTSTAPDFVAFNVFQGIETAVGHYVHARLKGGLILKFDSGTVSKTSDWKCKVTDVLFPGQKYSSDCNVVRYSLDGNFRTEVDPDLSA
# MERS papain-like protease (recombinant), sequence (K9N7C7 1552-1823 limits assumed): as above
substance,measurement,setting,value
Ac-hPhe-Dap-G-G (SEQ ID NO. 12),specific cleavage by SARS PLpro (not by MERS PLpro or human deubiquitylating enzymes),[1],specifically cleaved
Ac-Tyr-Dap-G-G (SEQ ID NO. 11),specific cleavage by SARS PLpro (not by MERS PLpro or human deubiquitylating enzymes),[1],specifically cleaved
L-R-G-G (SEQ ID NO. 1),Catalytic rate (Kcat),[2],8.5e-05 s⁻¹
same,cleavage by endogenous enzymes present in lysate,[3],is cleaved; also recorded: slight fluorescence increases
same,Catalytic rate (Kcat),[4],0.005 s⁻¹
same,Catalytic rate (Kcat),[5],5e-05 s⁻¹
same,cleavage of papain-like protease substrate,[6],+
same,cleavage of substrate (qualitative),[7],cleave
same,cleavage of substrate (qualitative),[8],cleave
same,cleavage of substrate (qualitative),[9],cleave
same,cleavage of papain-like protease substrate,[10],+
same,cleavage of papain-like protease substrate,[11],+
same,"cleavage, percent fluorescence increase relative to uninfected cells",[12],22%^2
Ac-Abu(Bth)-Dap-G-G (SEQ ID NO. 9),specific cleavage by SARS PLpro (not by MERS PLpro or human deubiquitylating enzymes),[1],specifically cleaved
Ubiquitin,Catalytic rate (Kcat),[2],0.167 s⁻¹
same,Catalytic rate (Kcat),[4],1.26 s⁻¹
same,cleavage of papain-like protease substrate,[13],+++
same,times more efficiently cleaved than ISG15,[13],2.5 times
same,times more efficiently cleaved than the tetrapeptide,[13],120 times
same,Catalytic rate (Kcat),[5],0.313 s⁻¹
same,cleavage of papain-like protease substrate,[6],++
same,cleavage of substrate (qualitative),[7],cleave
same,cleavage of substrate (qualitative),[8],cleave
same,cleavage of substrate (qualitative),[9],cleave
same,cleavage of papain-like protease substrate,[10],++
same,"cleavage, percent fluorescence increase relative to uninfected cells",[14],24%^1
same,cleavage of papain-like protease substrate,[11],++
Tyr-Dap-G-G (SEQ ID NO. 4),cleavage by endogenous enzymes present in lysate,[3],is not cleaved
same,cleavage of papain-like protease substrate,[6],+
same,cleavage of papain-like protease substrate,[10],++
same,"cleavage, percent fluorescence increase relative to uninfected cells",[12],34%^3
hTyr-Dap-G-G (SEQ ID NO. 13),recognition of the substrate,[15],do not recognize
Ac-hTyr-Phe(guan)-G-G (SEQ ID NO. 10),specific cleavage by SARS PLpro (not by MERS PLpro or human deubiquitylating enzymes),[1],specifically cleaved
